# Assay results published in patent US10828301B2, “2,4-pyrimidinediamine compounds and their uses” (Rigel Pharmaceuticals, Inc, priority 2002, dated 2020).
# Read-outs that look alike come from different tables or passages of the source.
# Key:
# [1] = tested on: cultured human mast cells (CHMC); experiment: CHMC high cell density IgE activation: degranulation (hexos, tryptase, histamine), leukotriene (LTC4) and cytokine (TNFalpha, IL-13) assays; type: cell-based; details: anti-IgE activation
# How it was run: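 IgE-sensitized CHMC at 1-2×10^6 cells/ml in MT buffer were pretreated with compound for 1 h at 37 °C (0.5% DMSO final), then stimulated with anti-IgE for 1 h. Tryptase was measured in 1:500-diluted supernatant. Pellets were re-incubated for 7 h with compound in CM media, and supernatants were assayed by ELISA.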
# [2] = tested on: basophils in whole human peripheral blood; experiment: Basophil IgE activation: histamine release assay; type: cell-based; details: Homo sapiens, anti-IgE activation
# How it was run: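 Dextran-sedimented whole blood from dust-mite-allergic human donors, resuspended in MT-buffer with 0.5% DMSO and preincubated with 8 compound concentrations in triplicate. Cells stimulated 30 min at 37 °C. Histamine released into the supernatant measured by ELISA.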
# [3] = tested on: basophils in whole human peripheral blood; experiment: Basophil ionomycin activation: histamine release assay; type: cell-based; details: Homo sapiens
# Protocol: Assays for ionomycin-induced basophil cell degranulation were carried out as described for the Basophil IgE or Dustmite Activation Assay (Section 6.4.6, supra), with the exception that following incubation with compound, cells were stimulated with 20 μl of 2 μM ionomycin.
# [4] = in vitro chromosomal aberration assay; type: cell-based
# [5] = type: in vivo; details: rat, oral doses of 50, 150 and 300 mg/kg given for 32 days
# [6] = Oral bioavailability / pharmacokinetics in rats; type: in vivo; details: rat, in vivo
# Protocol: Over 50 2,4-pyrimidinediamine compounds of the invention were tested for oral bioavailability. For the study, compounds were dissolved in various vehicles (e.g. PEG 400 solution and CMC suspension) for intravenous and oral dosing in the rats. Following administration of the drug, plasma samples were obtained and extracted. The plasma concentrations of the compounds were determined by high performance liquid chromatography/tandem mass spectrometry (LC/MS/MS) methods. Pharmacokinetic analyses were performed based on the plasma concentration data. The pharmacokinetic parameters of interest include Clearance (CL), Volume of distribution at steady-state (Vss), terminal half-life (t1/2), and oral bioavailability (% F).
structure (smiles),measurement,setting,value
"Nc1cccc(Nc2ncc(F)c(Nc3cccc(N)c3)n2)c1 [Compound R921302, N2,N4-Bis(3-aminophenyl)-5-fluoro-2,4-pyrimidinediamine]",IC50,"[1]; IL-13, read-out: CHMC high density IL-13",1.67 µM
same,IC50,"[1]; LTC4, read-out: CHMC high density LTC4",0.514 µM
same,IC50,"[1]; TNF-alpha, read-out: CHMC high density TNF-alpha",1.17 µM
same,IC50,"[1]; hexosaminidase release, read-out: CHMC high density hexos",0.682 µM
same,IC50,"[1]; histamine release, read-out: CHMC high density histamine",1.59 µM
same,IC50,"[1]; tryptase release, read-out: CHMC high density tryptase",0.795 µM
same,IC50,[2],0.19 µM
same,IC50,[3],> 10 µM
same,clastogenic potential,[4],not clastogenic
same,tolerability,[5],well tolerated
same,metabolic stability in pharmacokinetics studies,[6],most metabolically stable compound
